US20200231614A1, “PSMA TARGETED RADIOHALOGENATED UREAS FOR CANCER RADIOTHERAPY” (THE JOHNS HOPKINS UNIVERSITY, priority 2015, published 2020)
Read-outs that look alike come from different tables or passages of the source.

Tested on: PSMA + PC-3 PiP and PSMA − PC-3 flu tumor xenografts
Details: for Biodistribution: PC-3 PiP: PSMA+ tumor xenograft; for Biodistribution: PC-3 flu: PSMA− tumor xenograft

## N=C(N)NCc1ccc(C(=O)NCCCC[C@H](NC(=O)N[C@@H](CCC(=O)O)C(=O)O)C(=O)O)cc1[131I] [[^131I] labeled 7 (PSMA-620)]
1 H post-injection
  Biodistribution: Sm int.: 3.14 ± 0.66 % ID/g
  Biodistribution: bladder: 1.99 ± 0.50 % ID/g
  Biodistribution: blood: 0.95 ± 0.15 % ID/g
  Biodistribution: heart: 1.29 ± 0.37 % ID/g
  Biodistribution: kidney: 103 ± 24.0 % ID/g
  Biodistribution: liver: 8.25 ± 2.47 % ID/g
  Biodistribution: lung: 3.29 ± 0.56 % ID/g
  Biodistribution: muscle: 0.56 ± 0.05 % ID/g
  Biodistribution: spleen: 17.1 ± 3.71 % ID/g
  Biodistribution: stomach: 2.01 ± 0.41 % ID/g
  Biodistribution: thyroid: 0.79 ± 0.17 % ID/g
  Biodistribution: PC-3 PiP: 16.5 ± 4.78 % ID/g
  Biodistribution: PC-3 flu: 1.09 ± 0.21 % ID/g
2 H post-injection
  Biodistribution: Sm int.: 2.29 ± 0.69 % ID/g
  Biodistribution: bladder: 1.65 ± 0.48 % ID/g
  Biodistribution: blood: 0.58 ± 0.08 % ID/g
  Biodistribution: heart: 0.89 ± 0.18 % ID/g
  Biodistribution: kidney: 89.0 ± 5.18 % ID/g
  Biodistribution: liver: 5.62 ± 1.17 % ID/g
  Biodistribution: lung: 1.99 ± 0.23 % ID/g
  Biodistribution: muscle: 0.34 ± 0.08 % ID/g
  Biodistribution: spleen: 6.81 ± 3.20 % ID/g
  Biodistribution: stomach: 2.55 ± 0.69 % ID/g
  Biodistribution: thyroid: 0.77 ± 0.25 % ID/g
  Biodistribution: PC-3 PiP: 17.2 ± 4.34 % ID/g
  Biodistribution: PC-3 flu: 0.80 ± 0.11 % ID/g
4 H post-injection
  Biodistribution: Sm int.: 1.32 ± 0.68 % ID/g
  Biodistribution: bladder: 1.96 ± 1.10 % ID/g
  Biodistribution: blood: 0.30 ± 0.08 % ID/g
  Biodistribution: heart: 0.75 ± 0.34 % ID/g
  Biodistribution: kidney: 77.7 ± 38.8 % ID/g
  Biodistribution: liver: 4.37 ± 2.96 % ID/g
  Biodistribution: lung: 1.69 ± 0.67 % ID/g
  Biodistribution: muscle: 0.23 ± 0.10 % ID/g
  Biodistribution: spleen: 3.63 ± 2.40 % ID/g
  Biodistribution: stomach: 2.87 ± 0.55 % ID/g
  Biodistribution: thyroid: 0.75 ± 0.17 % ID/g
  Biodistribution: PC-3 PiP: 18.3 ± 4.27 % ID/g
  Biodistribution: PC-3 flu: 0.57 ± 0.21 % ID/g
14 H post-injection
  Biodistribution: Sm int.: 0.42 ± 0.12 % ID/g
  Biodistribution: bladder: 0.74 ± 0.35 % ID/g
  Biodistribution: blood: 0.16 ± 0.04 % ID/g
  Biodistribution: heart: 0.48 ± 0.12 % ID/g
  Biodistribution: kidney: 17.2 ± 10.7 % ID/g
  Biodistribution: liver: 0.60 ± 0.28 % ID/g
  Biodistribution: lung: 1.02 ± 0.27 % ID/g
  Biodistribution: muscle: 0.10 ± 0.02 % ID/g
  Biodistribution: spleen: 1.27 ± 0.42 % ID/g
  Biodistribution: stomach: 2.24 ± 1.08 % ID/g
  Biodistribution: thyroid: 0.74 ± 0.27 % ID/g
  Biodistribution: PC-3 PiP: 15.8 ± 2.42 % ID/g
  Biodistribution: PC-3 flu: 0.28 ± 0.10 % ID/g
21 H post-injection
  Biodistribution: Sm int.: 0.31 ± 0.07 % ID/g
  Biodistribution: bladder: 0.56 ± 0.37 % ID/g
  Biodistribution: blood: 0.09 ± 0.07 % ID/g
  Biodistribution: heart: 0.40 ± 0.11 % ID/g
  Biodistribution: kidney: 7.52 ± 1.82 % ID/g
  Biodistribution: liver: 0.33 ± 0.06 % ID/g
  Biodistribution: lung: 1.00 ± 0.21 % ID/g
  Biodistribution: muscle: 0.09 ± 0.01 % ID/g
  Biodistribution: spleen: 0.93 ± 0.37 % ID/g
  Biodistribution: stomach: 1.91 ± 0.95 % ID/g
  Biodistribution: thyroid: 0.88 ± 0.13 % ID/g
  Biodistribution: PC-3 PiP: 13.6 ± 3.33 % ID/g
  Biodistribution: PC-3 flu: 0.20 ± 0.08 % ID/g

## O=C(O)CC[C@H](NC(=O)N[C@@H](CSCc1ccc([125I])cc1)C(=O)O)C(=O)O [[^125I] labeled DCIBC, (S)-2-(3-((R)-1-carboxy-2-(4-[^125I]iodobenzylthio)ethyl)ureido)-pentanedioic Acid]
1 H post-injection
  Biodistribution: Lrg Int.: 1.2 ± 0.1 % ID/g
  Biodistribution: PSMA + tumor: 8.0 ± 1.3 % ID/g
  Biodistribution: PSMA − tumor: 1.3 ± 0.2 % ID/g
  Biodistribution: Sm int.: 1.2 ± 0.3 % ID/g
  Biodistribution: blood: 5.8 ± 2.3 % ID/g
  Biodistribution: heart: 1.5 ± 0.2 % ID/g
  Biodistribution: kidney: 77 ± 17 % ID/g
  Biodistribution: liver: 20 ± 4 % ID/g
  Biodistribution: lung: 2.2 ± 0.4 % ID/g
  Biodistribution: muscle: 1.0 ± 0.8 % ID/g
  Biodistribution: spleen: 5.1 ± 2.2 % ID/g
2 H post-injection
  Biodistribution: Lrg Int.: 1.2 ± 0.5 % ID/g
  Biodistribution: PSMA + tumor: 5.6 ± 1.3 % ID/g
  Biodistribution: PSMA − tumor: 0.9 ± 0.1 % ID/g
  Biodistribution: Sm int.: 1.1 ± 0.2 % ID/g
  Biodistribution: blood: 4.9 ± 2.6 % ID/g
  Biodistribution: heart: 1.1 ± 0.2 % ID/g
  Biodistribution: kidney: 30 ± 8 % ID/g
  Biodistribution: liver: 17 ± 4 % ID/g
  Biodistribution: lung: 1.9 ± 0.5 % ID/g
  Biodistribution: muscle: 0.5 ± 0.2 % ID/g
  Biodistribution: spleen: 3.2 ± 0.6 % ID/g
5 H post-injection
  Biodistribution: Lrg Int.: 2.7 ± 1.9 % ID/g
  Biodistribution: PSMA + tumor: 5.5 ± 0.6 % ID/g
  Biodistribution: PSMA − tumor: 1.0 ± 0.3 % ID/g
  Biodistribution: Sm Int.: 1.7 ± 1.5 % ID/g
  Biodistribution: blood: 3.3 ± 1.1 % ID/g
  Biodistribution: heart: 0.9 ± 0.5 % ID/g
  Biodistribution: kidney: 18 ± 6 % ID/g
  Biodistribution: liver: 17 ± 1 % ID/g
  Biodistribution: lung: 1.0 ± 0.5 % ID/g
  Biodistribution: muscle: 0.4 ± 0.2 % ID/g
  Biodistribution: spleen: 3.9 ± 1.1 % ID/g
